In the NIST ThermoML archive (doi:10.1021/acs.jced.6b00428):
Numbers after ± are expanded uncertainties.

Test: refractive index (Na D-line) (dimensionless)
Conditions: 101.33 kPa, Liquid, Standard Abbe refractometry

refractive index (293.15 K)	refractive index (298.15 K)	SMILES
1.3771 ± 0.0024	–	CC(=O)OC(C)C [1-methylethyl ethanoate]
–	1.3616 ± 0.0024	CCO [ethanol]
–	1.3328 ± 0.0024	O [water]
